Experimental data as given in ChEMBL document CHEMBL2385071, “Synthesis and biological investigation of coumarin piperazine (piperidine) derivatives as potential multireceptor atypical antipsychotics” (J Med Chem, 2013).

Tests used:
Mus musculus [1] = species on record: Mus musculus; experiment: animal or person; conditions: po
Description: Antipsychotic activity in po dosed mouse assessed as reduction in apomorphine-induced climbing behavior administered for 30 mins prior to apomorphine-challenge measured at 10 to 30 mins post-dose

Mus musculus [2] = experiment: Toxicity in mouse assessed as weight gain at 0.06 to […], po for 28 days; assay type: organism-based; parameters: dose 0.06-0.16 mg/kg, route oral; conditions: in vivo, 672 h
Mus musculus [3] = species on record: Mus musculus; experiment: animal or person; conditions: po; remark: listed apart in the source
Rattus norvegicus [4] = experiment: Toxicity in rat assessed as QT interval prolongation at 30 mg/kg, po by electrophysiology assay; assay type: organism-based; parameters: dose 30 mg/kg, route oral; conditions: in vivo
Rattus norvegicus [5] = experiment: Antipsychotic activity in po dosed rat assessed as reduction in conditioned avoidance response after 60 mins; assay type: functional; conditions: 1 h

In the case of `Cc1nc2n(c(=O)c1CCN1CCC(c3noc4cc(F)ccc34)CC1)CCCC2` [RISPERIDONE], the ED50 (Mus musculus [1]) is reported as 0.02 mg/kg, the Activity (Mus musculus [2]) is reported as “Toxic” and the ED50 (Mus musculus [3]) is reported as 0.01 mg/kg. The Activity (Rattus norvegicus [4]) was “Toxic” and the ED50 (Rattus norvegicus [5]) was 0.48 mg/kg.
